Measurements reported in patent publication EP4722212A1, “NOVEL COMPOUND FOR INHIBITING PROTEIN KINASES AND PHARMACEUTICAL COMPOSITION COMPRISING SAME” (Magicbullettherapeutics Co., Ltd., priority 2023, dated 2024).
Like-named read-outs stand apart in the source and are kept apart here.

How the values were obtained:
Assay in all cases: Kinase panel
Format in all cases: biochemical
MARK3 = MARK3 (Homo sapiens, UniProt P27448); settings: MARK3, 1 µM; read-out: residual enzyme activity
Experimental: (§1) To measure the inhibitory activity of protein kinases against the compounds of the present invention, a biochemical assay was performed using a full kinase panel. The inhibitory efficacy of kinases was measured when Example compounds 8 and 51 were treated at a single concentration of 1 µM, and residual enzyme activity values were calculated. Kinases were identified when the calculated residual enzyme activity values were 40% or less, i.e., inhibited by 60% or more.

PAK5 = PAK5 (Homo sapiens, UniProt Q9P286); settings: PAK5, 1 µM; read-out: residual enzyme activity
Experimental: as §1

PKCTHETA = PKCTHETA (Homo sapiens, UniProt Q04759); settings: read-out: residual enzyme activity
Experimental: as §1

SRMS = SRMS (Homo sapiens, UniProt Q9H3Y6); settings: read-out: residual enzyme activity
Experimental: as §1

IGFIR = IGFIR (Homo sapiens, UniProt P08069); settings: read-out: residual enzyme activity
Sequence of IGFIR (P08069 31-1367): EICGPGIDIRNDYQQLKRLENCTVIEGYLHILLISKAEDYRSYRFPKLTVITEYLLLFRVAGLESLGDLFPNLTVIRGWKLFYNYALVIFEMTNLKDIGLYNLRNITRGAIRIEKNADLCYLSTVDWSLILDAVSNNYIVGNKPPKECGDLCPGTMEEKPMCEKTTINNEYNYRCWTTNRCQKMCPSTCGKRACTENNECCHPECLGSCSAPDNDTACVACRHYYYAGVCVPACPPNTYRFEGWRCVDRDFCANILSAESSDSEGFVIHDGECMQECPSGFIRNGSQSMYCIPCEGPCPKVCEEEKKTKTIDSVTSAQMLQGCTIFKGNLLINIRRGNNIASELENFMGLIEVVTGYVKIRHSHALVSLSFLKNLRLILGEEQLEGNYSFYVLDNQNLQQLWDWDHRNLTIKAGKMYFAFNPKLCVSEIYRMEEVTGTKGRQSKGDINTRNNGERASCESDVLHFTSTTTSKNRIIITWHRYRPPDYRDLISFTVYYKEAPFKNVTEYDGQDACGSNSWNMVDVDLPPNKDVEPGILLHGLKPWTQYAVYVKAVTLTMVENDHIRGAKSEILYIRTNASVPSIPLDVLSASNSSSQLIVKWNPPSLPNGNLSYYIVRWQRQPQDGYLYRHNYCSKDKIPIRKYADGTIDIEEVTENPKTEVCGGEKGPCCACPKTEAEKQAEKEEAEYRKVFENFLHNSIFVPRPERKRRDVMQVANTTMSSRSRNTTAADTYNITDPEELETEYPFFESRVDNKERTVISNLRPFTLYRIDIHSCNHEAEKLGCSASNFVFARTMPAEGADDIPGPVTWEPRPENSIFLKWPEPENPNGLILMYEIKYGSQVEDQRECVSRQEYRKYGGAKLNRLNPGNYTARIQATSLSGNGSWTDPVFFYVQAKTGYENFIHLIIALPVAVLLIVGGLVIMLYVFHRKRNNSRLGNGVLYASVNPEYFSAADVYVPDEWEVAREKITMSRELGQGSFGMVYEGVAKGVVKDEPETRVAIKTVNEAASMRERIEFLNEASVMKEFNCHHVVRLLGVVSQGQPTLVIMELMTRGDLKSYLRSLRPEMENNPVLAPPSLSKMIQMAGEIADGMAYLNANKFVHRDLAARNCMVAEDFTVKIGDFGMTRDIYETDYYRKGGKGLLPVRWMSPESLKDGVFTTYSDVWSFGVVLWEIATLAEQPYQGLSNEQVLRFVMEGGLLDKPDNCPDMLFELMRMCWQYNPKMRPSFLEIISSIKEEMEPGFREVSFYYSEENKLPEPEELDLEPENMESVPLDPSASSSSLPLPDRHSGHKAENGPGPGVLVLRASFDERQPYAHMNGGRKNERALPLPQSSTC
Experimental: as §1

ITK = ITK (Homo sapiens, UniProt Q08881); settings: read-out: residual enzyme activity
Experimental: as §1

LATS2 = LATS2 (Homo sapiens, UniProt Q9NRM7); settings: LATS2, 1 µM; read-out: residual enzyme activity
Experimental: as §1

NEK3 = NEK3 (Homo sapiens, UniProt P51956); settings: NEK3, 1 µM; read-out: residual enzyme activity
Experimental: as §1

COT1/MAP3K8 = COT1/MAP3K8 (Homo sapiens, UniProt P41279); settings: COT1/MAP3K8, 1 µM; read-out: residual enzyme activity
Experimental: as §1

TRKB = TRKB (Homo sapiens, UniProt Q16620); settings: read-out: residual enzyme activity
Experimental: as §1

ERK2/MAPK1 = ERK2/MAPK1 (Homo sapiens, UniProt P28482); settings: ERK2/MAPK1, 1 µM; read-out: residual enzyme activity
Sequence of ERK2/MAPK1 (P28482 whole entry): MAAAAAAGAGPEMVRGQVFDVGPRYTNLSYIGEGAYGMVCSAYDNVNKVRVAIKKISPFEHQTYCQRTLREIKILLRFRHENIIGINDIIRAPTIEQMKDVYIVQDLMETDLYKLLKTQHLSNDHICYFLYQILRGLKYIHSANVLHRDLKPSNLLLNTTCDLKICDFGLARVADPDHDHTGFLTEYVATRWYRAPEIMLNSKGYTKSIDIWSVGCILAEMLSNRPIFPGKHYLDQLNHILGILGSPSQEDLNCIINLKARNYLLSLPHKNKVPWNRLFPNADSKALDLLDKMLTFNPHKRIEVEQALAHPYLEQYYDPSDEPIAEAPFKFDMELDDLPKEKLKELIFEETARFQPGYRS
Experimental: as §1

NEK5 = NEK5 (Homo sapiens, UniProt Q6P3R8); settings: NEK5, 1 µM; read-out: residual enzyme activity
Experimental: as §1

ARAF = settings: 1 µM
Experimental: as §1

DCAMKL1 = DCAMKL1 (Homo sapiens, UniProt O15075); settings: DCAMKL1, 1 µM; read-out: residual enzyme activity
Experimental: as §1

KHS/MAP4K5 = KHS/MAP4K5 (Homo sapiens, UniProt Q9Y4K4); settings: KHS/MAP4K5, 1 µM; read-out: residual enzyme activity
Experimental: as §1

ROCK2 = ROCK2 (Homo sapiens, UniProt O75116); settings: ROCK2, 1 µM; read-out: residual enzyme activity
Sequence of ROCK2 (O75116 whole entry, species assumed): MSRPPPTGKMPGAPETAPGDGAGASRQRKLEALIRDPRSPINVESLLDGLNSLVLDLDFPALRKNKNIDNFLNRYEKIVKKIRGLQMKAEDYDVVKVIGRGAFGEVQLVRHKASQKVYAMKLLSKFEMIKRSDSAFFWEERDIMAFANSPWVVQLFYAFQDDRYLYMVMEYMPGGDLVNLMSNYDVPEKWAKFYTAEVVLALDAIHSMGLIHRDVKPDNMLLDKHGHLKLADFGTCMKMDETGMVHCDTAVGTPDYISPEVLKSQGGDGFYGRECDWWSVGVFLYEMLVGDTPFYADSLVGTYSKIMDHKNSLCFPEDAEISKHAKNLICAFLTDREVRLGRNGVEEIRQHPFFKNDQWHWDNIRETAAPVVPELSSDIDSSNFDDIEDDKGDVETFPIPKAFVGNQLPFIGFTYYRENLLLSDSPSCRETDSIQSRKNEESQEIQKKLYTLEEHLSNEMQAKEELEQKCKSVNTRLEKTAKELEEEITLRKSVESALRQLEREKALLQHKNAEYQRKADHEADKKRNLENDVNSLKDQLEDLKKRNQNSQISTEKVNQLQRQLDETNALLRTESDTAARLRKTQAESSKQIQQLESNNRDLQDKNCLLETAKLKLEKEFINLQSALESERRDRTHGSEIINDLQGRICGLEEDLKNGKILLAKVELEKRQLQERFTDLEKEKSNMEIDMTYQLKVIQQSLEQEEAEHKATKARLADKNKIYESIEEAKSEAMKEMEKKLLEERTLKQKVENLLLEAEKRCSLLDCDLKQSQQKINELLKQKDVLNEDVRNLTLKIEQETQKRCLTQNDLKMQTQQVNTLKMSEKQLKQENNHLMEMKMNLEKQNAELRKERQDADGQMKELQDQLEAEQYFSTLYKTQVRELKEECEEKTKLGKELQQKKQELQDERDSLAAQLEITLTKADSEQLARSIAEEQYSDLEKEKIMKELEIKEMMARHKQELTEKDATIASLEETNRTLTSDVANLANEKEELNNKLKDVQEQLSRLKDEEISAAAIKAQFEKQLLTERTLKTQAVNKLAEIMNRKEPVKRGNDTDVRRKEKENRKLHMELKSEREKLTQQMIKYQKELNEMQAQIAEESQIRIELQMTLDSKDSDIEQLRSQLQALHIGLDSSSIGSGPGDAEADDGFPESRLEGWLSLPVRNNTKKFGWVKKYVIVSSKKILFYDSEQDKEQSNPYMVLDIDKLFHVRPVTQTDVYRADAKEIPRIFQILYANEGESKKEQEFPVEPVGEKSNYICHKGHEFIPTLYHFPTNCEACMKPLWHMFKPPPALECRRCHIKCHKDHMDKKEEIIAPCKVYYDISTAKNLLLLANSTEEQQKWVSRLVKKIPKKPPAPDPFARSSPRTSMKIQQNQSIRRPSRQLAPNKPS
Experimental: as §1

ZAK/MLTK = ZAK/MLTK (Homo sapiens, UniProt Q9NYL2); settings: read-out: residual enzyme activity
Experimental: as §1

STK33 = STK33 (Homo sapiens, UniProt Q9BYT3); settings: STK33, 1 µM; read-out: residual enzyme activity
Experimental: as §1

KSR1 = KSR1 (Homo sapiens, UniProt Q8IVT5); settings: KSR1, 1 µM; read-out: residual enzyme activity
Experimental: as §1

STK16 = STK16 (Homo sapiens, UniProt O75716); settings: STK16, 1 µM; read-out: residual enzyme activity
Sequence of STK16 (O75716 whole entry, species assumed): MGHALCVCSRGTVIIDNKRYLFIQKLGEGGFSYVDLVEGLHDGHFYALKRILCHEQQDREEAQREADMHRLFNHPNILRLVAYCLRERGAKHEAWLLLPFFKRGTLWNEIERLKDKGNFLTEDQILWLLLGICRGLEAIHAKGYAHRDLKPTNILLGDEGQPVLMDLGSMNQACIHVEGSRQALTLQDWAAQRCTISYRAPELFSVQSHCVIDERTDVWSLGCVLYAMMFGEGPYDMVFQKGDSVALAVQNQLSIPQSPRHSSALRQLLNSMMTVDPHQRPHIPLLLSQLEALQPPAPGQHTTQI
Experimental: as §1

P38A/MAPK14 = P38A/MAPK14 (Homo sapiens, UniProt Q16539); settings: read-out: residual enzyme activity
Sequence of P38A/MAPK14 (Q16539 2-360 limits assumed): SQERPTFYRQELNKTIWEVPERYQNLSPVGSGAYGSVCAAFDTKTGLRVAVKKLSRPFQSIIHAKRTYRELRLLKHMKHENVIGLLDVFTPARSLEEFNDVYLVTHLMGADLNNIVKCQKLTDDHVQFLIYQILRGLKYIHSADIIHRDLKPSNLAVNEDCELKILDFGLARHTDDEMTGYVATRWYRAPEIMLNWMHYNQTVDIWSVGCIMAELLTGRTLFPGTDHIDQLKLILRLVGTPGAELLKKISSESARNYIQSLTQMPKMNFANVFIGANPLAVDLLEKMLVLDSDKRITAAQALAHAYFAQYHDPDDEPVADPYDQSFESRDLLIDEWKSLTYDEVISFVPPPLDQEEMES
Experimental: as §1

EPHA7 = EPHA7 (Homo sapiens, UniProt Q15375); settings: EPHA7, 1 µM; read-out: residual enzyme activity
Experimental: as §1

MKK7 = MKK7 (Homo sapiens, UniProt O14733); settings: MKK7, 1 µM; read-out: residual enzyme activity
Sequence of MKK7 (O14733 whole entry, species assumed): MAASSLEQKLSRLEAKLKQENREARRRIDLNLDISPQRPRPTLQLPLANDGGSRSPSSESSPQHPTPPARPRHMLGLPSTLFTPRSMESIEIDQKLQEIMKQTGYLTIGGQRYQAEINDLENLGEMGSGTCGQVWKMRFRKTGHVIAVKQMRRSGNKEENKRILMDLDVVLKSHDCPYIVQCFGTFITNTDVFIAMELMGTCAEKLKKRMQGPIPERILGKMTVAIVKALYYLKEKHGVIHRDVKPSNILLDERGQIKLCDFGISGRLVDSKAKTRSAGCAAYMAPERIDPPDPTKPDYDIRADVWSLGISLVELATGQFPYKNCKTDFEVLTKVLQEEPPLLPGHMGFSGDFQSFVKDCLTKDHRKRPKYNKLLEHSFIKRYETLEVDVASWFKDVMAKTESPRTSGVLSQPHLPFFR
Experimental: as §1

TESK1 = TESK1 (Homo sapiens, UniProt Q15569); settings: TESK1, 1 µM; read-out: residual enzyme activity
Experimental: as §1

P70S6K/RPS6KB1 = P70S6K/RPS6KB1 (Homo sapiens, UniProt P23443); settings: read-out: residual enzyme activity
Experimental: as §1

ALK1/ACVRL1 = ALK1/ACVRL1 (Homo sapiens, UniProt P37023); settings: ALK1/ACVRL1, 1 µM; read-out: residual enzyme activity
Experimental: as §1

EPHA4 = EPHA4 (Homo sapiens, UniProt P54764); settings: EPHA4, 1 µM; read-out: residual enzyme activity
Experimental: as §1

ERN2/IRE2 = ERN2/IRE2 (Homo sapiens, UniProt Q76MJ5); settings: ERN2/IRE2, 1 µM; read-out: residual enzyme activity
Experimental: as §1

MKK6 = MKK6 (Homo sapiens, UniProt P52564); settings: MKK6, 1 µM; read-out: residual enzyme activity
Sequence of MKK6 (P52564 whole entry, species assumed): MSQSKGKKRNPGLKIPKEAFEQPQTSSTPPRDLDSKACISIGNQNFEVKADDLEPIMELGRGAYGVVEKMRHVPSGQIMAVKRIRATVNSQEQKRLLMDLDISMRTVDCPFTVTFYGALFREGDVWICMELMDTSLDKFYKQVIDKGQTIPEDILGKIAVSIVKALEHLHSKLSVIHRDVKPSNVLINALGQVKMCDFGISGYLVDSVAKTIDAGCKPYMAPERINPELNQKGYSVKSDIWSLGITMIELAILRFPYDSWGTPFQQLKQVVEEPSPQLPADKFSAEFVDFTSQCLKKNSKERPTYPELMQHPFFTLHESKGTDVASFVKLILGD
Experimental: as §1

DYRK4 = DYRK4 (Homo sapiens, UniProt Q9NR20); settings: DYRK4, 1 µM; read-out: residual enzyme activity
Sequence of DYRK4 (Q9NR20 whole entry, species assumed): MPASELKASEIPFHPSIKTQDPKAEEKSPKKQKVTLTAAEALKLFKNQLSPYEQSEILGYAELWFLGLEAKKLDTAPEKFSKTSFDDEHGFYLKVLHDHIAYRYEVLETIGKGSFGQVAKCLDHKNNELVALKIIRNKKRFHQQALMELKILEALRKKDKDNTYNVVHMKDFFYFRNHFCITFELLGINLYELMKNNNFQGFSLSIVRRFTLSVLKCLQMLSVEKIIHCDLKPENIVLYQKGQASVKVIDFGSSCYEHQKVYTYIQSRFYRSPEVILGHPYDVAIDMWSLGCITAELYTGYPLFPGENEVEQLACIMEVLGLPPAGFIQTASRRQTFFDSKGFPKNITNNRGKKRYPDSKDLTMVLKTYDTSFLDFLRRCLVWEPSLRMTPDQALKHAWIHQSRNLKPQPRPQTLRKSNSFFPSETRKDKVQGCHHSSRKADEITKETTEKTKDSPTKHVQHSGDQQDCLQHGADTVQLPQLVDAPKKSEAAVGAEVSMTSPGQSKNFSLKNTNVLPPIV
Experimental: as §1

FES/FPS = FES/FPS (Homo sapiens, UniProt P07332); settings: read-out: residual enzyme activity
Experimental: as §1

IR = IR (Homo sapiens, UniProt P06213); settings: read-out: residual enzyme activity
Experimental: as §1

ERK5/MAPK7 = ERK5/MAPK7 (Homo sapiens, UniProt Q13164); settings: ERK5/MAPK7, 1 µM; read-out: residual enzyme activity
Experimental: as §1

JNK3 = JNK3 (Homo sapiens, UniProt P53779); settings: JNK3, 1 µM; read-out: residual enzyme activity
Experimental: as §1

Row | SMILES | remaining activity at 1 µM (MARK3) [%] | remaining activity at 1 µM (PAK5) [%] | remaining activity at 1 µM (PKCTHETA) [%] | remaining activity at 1 µM (SRMS) [%] | remaining activity at 1 µM (IGFIR) [%] | remaining activity at 1 µM (ITK) [%] | remaining activity at 1 µM (LATS2) [%] | remaining activity at 1 µM (NEK3) [%] | remaining activity at 1 µM (COT1/MAP3K8) [%] | remaining activity at 1 µM (TRKB) [%] | remaining activity at 1 µM (ERK2/MAPK1) [%] | remaining activity at 1 µM (NEK5) [%] | residual enzyme activity (ARAF) | remaining activity at 1 µM (DCAMKL1) [%] | remaining activity at 1 µM (KHS/MAP4K5) [%] | remaining activity at 1 µM (ROCK2) [%] | remaining activity at 1 µM (ZAK/MLTK) [%] | remaining activity at 1 µM (STK33) [%] | remaining activity at 1 µM (KSR1) [%] | remaining activity at 1 µM (STK16) [%] | further results
1 | Cc1cn(-c2cc(C(=O)Nc3ccc(C)c(N4Cc5cnc(NC6CC6)nc5C5(CC5)C4=O)c3)cc(C(F)(F)F)c2)cn1 [Compound 8, N-(3-(2'-(cyclopropylamino)-7'-oxo-5'H-spiro[cyclopropane-1,8'-pyrido[4,3-d]pyrimidine]-6'(7'H)-yl)-4-methylphenyl)-3-(4-methyl-1H-imidazol-1-yl)-5-(trifluoromethyl)benzamide] | > 40 | > 40 | > 40 | ≤ 40 | > 40 | > 40 | ≤ 40 | > 40 | > 40 | ≤ 40 | > 40 | > 40 | O (residual enzyme activity values were 40% or less, i.e., inhibited by 60% or more) | > 40 | ≤ 40 | > 40 | ≤ 40 | > 40 | > 40 | > 40 | remaining activity at 1 µM (P38A/MAPK14; P38A/MAPK14, 1 µM): ≤ 40%; remaining activity at 1 µM (EPHA7): ≤ 40%; remaining activity at 1 µM (MKK7): > 40%; remaining activity at 1 µM (TESK1): ≤ 40%; remaining activity at 1 µM (P70S6K/RPS6KB1; P70S6K/RPS6KB1, 1 µM): > 40%; remaining activity at 1 µM (ALK1/ACVRL1): > 40%; remaining activity at 1 µM (EPHA4): ≤ 40%; remaining activity at 1 µM (ERN2/IRE2): > 40%; remaining activity at 1 µM (MKK6): > 40%; remaining activity at 1 µM (DYRK4): > 40%; remaining activity at 1 µM (FES/FPS): ≤ 40%; remaining activity at 1 µM (IR): > 40%; remaining activity at 1 µM (ERK5/MAPK7): > 40%; remaining activity at 1 µM (JNK3): > 40%
2 | Cc1ccc(Nc2ncc3c(n2)C2(CC2)C(=O)N(c2cc(NC(=O)c4cccc(C(F)(F)F)c4)ccc2C)C3)cn1 [Compound 51, N-(4-methyl-3-(2'-((6-methylpyridin-3-yl)amino)-7'-oxo-5'H-spiro[cyclopropane-1,8'-pyrido[4,3-d]pyrimidine]-6'(7'H)-yl)phenyl)-3-(trifluoromethyl)benzamide] | > 40 | > 40 | > 40 | ≤ 40 | > 40 | > 40 | ≤ 40 | > 40 | > 40 | ≤ 40 | > 40 | > 40 | O (residual enzyme activity values were 40% or less, i.e., inhibited by 60% or more) | > 40 | ≤ 40 | > 40 | ≤ 40 | > 40 | > 40 | > 40 | remaining activity at 1 µM (P38A/MAPK14; P38a/MAPK14, 1 µM): ≤ 40%; remaining activity at 1 µM (EPHA7): ≤ 40%; remaining activity at 1 µM (MKK7): > 40%; remaining activity at 1 µM (TESK1): ≤ 40%; remaining activity at 1 µM (P70S6K/RPS6KB1; p70S6K/RPS6KB1, 1 µM): ≤ 40%; remaining activity at 1 µM (ALK1/ACVRL1): > 40%; remaining activity at 1 µM (EPHA4): ≤ 40%; remaining activity at 1 µM (ERN2/IRE2): > 40%; remaining activity at 1 µM (MKK6): > 40%; remaining activity at 1 µM (DYRK4): > 40%; remaining activity at 1 µM (FES/FPS): ≤ 40%; remaining activity at 1 µM (IR): > 40%; remaining activity at 1 µM (ERK5/MAPK7): > 40%; remaining activity at 1 µM (JNK3): ≤ 40%
